Laboratory results as given in US20240329286A1, “LIGHT ABSORPTION FILTER, OPTICAL FILTER, MANUFACTURING METHOD FOR OPTICAL FILTER, ORGANIC ELECTROLUMINESCENT DISPLAY DEVICE, INORGANIC ELECTROLUMINESCENT DISPLAY DEVICE, AND LIQUID CRYSTAL DISPLAY DEVICE” (FUJIFILM Corporation, priority 2022, published 2024).

Assay: pKaH (pKa of the conjugate acid) by titration with sodium hydroxide aqueous solution
Format: physicochemical
Conditions: water/methanol=50/50 (volume ratio), 25° C.; for pKaH of compound B: Table 2
Source text: The pKa can be calculated by dropwise adding a 0.01 mol/L sodium hydroxide aqueous solution to a mixed solution of water/methanol=50/50 (in terms of volume ratio) of a measurement sample (a conjugate acid of the compound B) and reading the amount of the sodium hydroxide aqueous solution that has been dropwise added up to the half-equivalent point.

| pKaH | pKaH of compound B | Structure (SMILES) |
| --- | --- | --- |
| 4.3 |  | c1ccc(-c2ccnc3ccccc23)cc1 [4-Phenylquinoline] |
|  | 4.8 | Cc1ccc2ccccc2n1 [2-methylquinoline] |
|  | 5.1 | Cc1ccnc2ccccc12 [4-methylquinoline] |
|  | 4.2 | c1ccc2ncccc2c1 [Quinoline] |
|  | 5.2 | Cc1cc2ccccc2cn1 [3-methylisoquinoline] |
|  | 5.7 | Cc1cc(C)c2ccccc2n1 [2,4-dimethylquinoline] |
|  | 4.7 | c1ccc2cnccc2c1 [Isoquinoline] |
